Reference: patent US20230295197A1, “STAT5 and STAT6 Degraders and Uses Thereof” (REGENTS OF THE UNIVERSITY OF MICHICAN, priority 2022, published 2023)

Target: T1, STAT6 (Homo sapiens, UniProt P42226)
T1 construct: endogenous in cells; host or cells: MOLM-16, KU-812, SKNO1, MB231, L1236
T1 sequence (P42226 1-847): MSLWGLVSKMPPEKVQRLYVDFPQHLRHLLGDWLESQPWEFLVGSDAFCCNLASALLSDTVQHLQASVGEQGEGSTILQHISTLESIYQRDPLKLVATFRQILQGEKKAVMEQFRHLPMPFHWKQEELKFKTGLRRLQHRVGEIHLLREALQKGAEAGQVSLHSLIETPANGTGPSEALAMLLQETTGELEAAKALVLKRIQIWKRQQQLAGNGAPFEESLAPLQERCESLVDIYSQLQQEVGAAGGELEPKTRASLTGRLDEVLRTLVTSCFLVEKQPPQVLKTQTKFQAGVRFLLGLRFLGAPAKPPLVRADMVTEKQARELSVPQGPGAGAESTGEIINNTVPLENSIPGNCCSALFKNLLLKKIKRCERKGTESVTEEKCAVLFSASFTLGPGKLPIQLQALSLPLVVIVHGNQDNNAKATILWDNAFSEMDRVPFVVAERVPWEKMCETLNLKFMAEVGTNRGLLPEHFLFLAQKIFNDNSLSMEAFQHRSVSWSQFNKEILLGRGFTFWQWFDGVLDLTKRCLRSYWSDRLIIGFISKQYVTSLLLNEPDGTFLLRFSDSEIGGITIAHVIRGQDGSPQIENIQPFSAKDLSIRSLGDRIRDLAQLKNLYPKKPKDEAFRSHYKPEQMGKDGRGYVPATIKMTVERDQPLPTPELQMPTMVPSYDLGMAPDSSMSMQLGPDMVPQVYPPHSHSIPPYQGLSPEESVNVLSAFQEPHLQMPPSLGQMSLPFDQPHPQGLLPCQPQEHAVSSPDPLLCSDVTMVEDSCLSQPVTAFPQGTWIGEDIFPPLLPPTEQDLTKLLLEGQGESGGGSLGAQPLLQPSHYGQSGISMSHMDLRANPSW
Test: Immunoblotting (Western blot) analysis of STAT6 degradation efficiency of degraders in treated cells
Format: cell-based
Details: L1236 cells, read-out: DC50 S6 L1236
Outline: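 ~1e6 cells/pt; cpd at indicated conc and duration; RIPA + protease/phosphatase inhibitors; BCA; 20-40 μg/lane Tris-glycine SDS-PAGE; PVDF; primary Ab 1:1000 o/n 4 °C; IRDye secondaries 1 h rt; infrared scan and densitometry; GAPDH loading ctrl.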

| SMILES | DC50 |
| --- | --- |
| Cc1ncsc1-c1ccc([C@H](C)NC(=O)[C@@H]2C[C@@H](O)CN2C(=O)[C@@H](NC(=O)CCCCNC(=O)CO[C@H]2C[C@@H](C(=O)N3CCO[C@H](c4ccccc4)C3)N(C(=O)[C@@H](NC(=O)c3cc4cc(C(F)(F)P(=O)(O)O)ccc4s3)C(C)(C)C)C2)C(C)(C)C)cc1 [Compound 428, (difluoro(2-(((S)-1-((2S,4S)-4-(2-((5-(((S)-1-((2S,4R)-4-hydroxy-2-(((S)-1-(4-(4-methylthiazol-5-yl)phenyl)ethyl)carbamoyl)pyrrolidin-1-yl)-3,3-dimethyl-1-oxobutan-2-yl)amino)-5-oxopentyl)amino)-2-oxoethoxy)-2-((R)-2-phenylmorpholine-4-carbonyl)pyrrolidin-1-yl)-3,3-dimethyl-1-oxobutan-2-yl)carbamoyl)benzo[b]thiophen-5-yl)methyl)phosphonic acid] | > 10 µM |

Same assay, conditions: MOLM-16 cells, class symbols, read-out: DC50 S6 MOLM-16

| SMILES | DC50 |
| --- | --- |
| Cc1ncsc1-c1ccc([C@H](C)NC(=O)[C@@H]2C[C@@H](O)CN2C(=O)[C@@H](NC(=O)CCCCCCCCNC(=O)COc2ccc3c(c2)CN(C(=O)[C@@H](NC(=O)c2cc4cc(C(F)(F)P(=O)(O)O)ccc4s2)C(C)(C)C)[C@H](C(=O)N2CCC[C@H](c4ccccc4)C2)C3)C(C)(C)C)cc1 [Compound 477, (difluoro(2-(((S)-1-((S)-7-(2-((9-(((S)-1-((2S,4R)-4-hydroxy-2-(((S)-1-(4-(4-methylthiazol-5-yl)phenyl)ethyl)carbamoyl)pyrrolidin-1-yl)-3,3-dimethyl-1-oxobutan-2-yl)amino)-9-oxononyl)amino)-2-oxoethoxy)-3-((R)-3-phenylpiperidine-1-carbonyl)-3,4-dihydroisoquinolin-2(1H)-yl)-3,3-dimethyl-1-oxobutan-2-yl)carbamoyl)benzo[b]thiophen-5-yl)methyl)phosphonic acid] | > 10 µM |
| CC(C)(C)[C@H](NC(=O)c1cc2cc(C(F)(F)P(=O)(O)O)ccc2s1)C(=O)N1CCN(C(=O)CC(=O)NCCCCCCCCC#Cc2cccc3c2C(=O)N(C2CCC(=O)NC2=O)C3=O)C[C@H]1C(=O)N1CCO[C@H](c2ccccc2)C1 (stereo partly drawn) [Compound 517, ((2-(((2S)-1-((2S)-4-(3-((10-(2-(2,6-dioxopiperidin-3-yl)-1,3-dioxoisoindolin-4-yl)dec-9-yn-1-yl)amino)-3-oxopropanoyl)-2-((R)-2-phenylmorpholine-4-carbonyl)piperazin-1-yl)-3,3-dimethyl-1-oxobutan-2-yl)carbamoyl)benzo[b]thiophen-5-yl)difluoromethyl)phosphonic acid] | > 10 µM |
| CC(C)(C)[C@H](NC(=O)c1cc2cc(C(F)(F)P(=O)(O)O)ccc2s1)C(=O)N1CCN(C(=O)CC(=O)NCCC#Cc2cccc3c2C(=O)N(C2CCC(=O)NC2=O)C3=O)C[C@H]1C(=O)N1CCC[C@H](c2ccccc2)C1 (stereo partly drawn) [Compound 523, ((2-(((2S)-1-((2S)-4-(3-((4-(2-(2,6-dioxopiperidin-3-yl)-1,3-dioxoisoindolin-4-yl)but-3-yn-1-yl)amino)-3-oxopropanoyl)-2-((R)-3-phenylpiperidine-1-carbonyl)piperazin-1-yl)-3,3-dimethyl-1-oxobutan-2-yl)carbamoyl)benzo[b]thiophen-5-yl)difluoromethyl)phosphonic acid] | > 10 µM |
| CC(C)(C)[C@H](NC(=O)c1cc2cc(C(F)(F)P(=O)(O)O)ccc2s1)C(=O)N1Cc2cc(OCC(=O)NCC#Cc3cccc4c3C(=O)N(C3CCC(=O)NC3=O)C4=O)ccc2C[C@H]1C(=O)N1CCC[C@H](c2ccccc2)C1 (stereo partly drawn) [Compound 549, ((2-(((2S)-1-((3S)-7-(2-((3-(2-(2,6-dioxopiperidin-3-yl)-1,3-dioxoisoindolin-4-yl)prop-2-yn-1-yl)amino)-2-oxoethoxy)-3-((R)-3-phenylpiperidine-1-carbonyl)-3,4-dihydroisoquinolin-2(1H)-yl)-3,3-dimethyl-1-oxobutan-2-yl)carbamoyl)benzo[b]thiophen-5-yl)difluoromethyl)phosphonic acid] | > 10 µM |
| Cc1ncsc1-c1ccc([C@H](C)NC(=O)[C@@H]2C[C@@H](O)CN2C(=O)[C@@H](NC(=O)CCCCCCCNC(=O)COc2ccc3c(c2)CN(C(=O)[C@@H](NC(=O)c2cc4cc(C(F)(F)P(=O)(O)O)ccc4s2)C(C)(C)C)[C@H](C(=O)N2CCC[C@H](c4ccccc4)C2)C3)C(C)(C)C)cc1 [Compound 476, (difluoro(2-(((S)-1-((S)-7-(2-((8-(((S)-1-((2S,4R)-4-hydroxy-2-(((S)-1-(4-(4-methylthiazol-5-yl)phenyl)ethyl)carbamoyl)pyrrolidin-1-yl)-3,3-dimethyl-1-oxobutan-2-yl)amino)-8-oxooctyl)amino)-2-oxoethoxy)-3-((R)-3-phenylpiperidine-1-carbonyl)-3,4-dihydroisoquinolin-2(1H)-yl)-3,3-dimethyl-1-oxobutan-2-yl)carbamoyl)benzo[b]thiophen-5-yl)methyl)phosphonic acid] | > 10 µM |
| Cc1ncsc1-c1ccc([C@H](CC(=O)NCCCCCCCCCC(=O)N[C@H]2C[C@@H](C(=O)N3CCO[C@H](c4ccccc4)C3)N(C(=O)[C@@H](NC(=O)c3cc4cc(C(F)(F)P(=O)(O)O)ccc4s3)C(C)(C)C)C2)NC(=O)[C@@H]2C[C@@H](O)CN2C(=O)[C@@H](NC(=O)C2(F)CC2)C(C)(C)C)cc1 [Compound 572, (difluoro(2-(((S)-1-((2S,4S)-4-(10-((S)-3-((2S,4R)-1-((S)-2-(1-fluorocyclopropane-1-carboxamido)-3,3-dimethylbutanoyl)-4-hydroxypyrrolidine-2-carboxamido)-3-(4-(4-methylthiazol-5-yl)phenyl)propanamido)decanamido)-2-((R)-2-phenylmorpholine-4-carbonyl)pyrrolidin-1-yl)-3,3-dimethyl-1-oxobutan-2-yl)carbamoyl)benzo[b]thiophen-5-yl)methyl)phosphonic acid] | > 10 µM |
| CC(C)(C)[C@H](NC(=O)c1cc2cc(C(F)(F)P(=O)(O)O)ccc2s1)C(=O)N1C[C@@H](OCC(=O)NCCCCCC#Cc2cccc3c2C(=O)N(C2CCC(=O)NC2=O)C3=O)C[C@H]1C(=O)N1CCO[C@H](c2ccccc2)C1 (stereo partly drawn) [Compound 487, ((2-(((2S)-1-((2S,4S)-4-(2-((7-(2-(2,6-dioxopiperidin-3-yl)-1,3-dioxoisoindolin-4-yl)hept-6-yn-1-yl)amino)-2-oxoethoxy)-2-((R)-2-phenylmorpholine-4-carbonyl)pyrrolidin-1-yl)-3,3-dimethyl-1-oxobutan-2-yl)carbamoyl)benzo[b]thiophen-5-yl)difluoromethyl)phosphonic acid] | > 10 µM |
| CC(C)(C)[C@H](NC(=O)c1cc2cc(C(F)(F)P(=O)(O)O)ccc2s1)C(=O)N1CCN(C(=O)CC(=O)NCCC#Cc2ccc3c(c2)C(=O)N(C2CCC(=O)NC2=O)C3=O)C[C@H]1C(=O)N1CCC[C@H](c2ccccc2)C1 (stereo partly drawn) [Compound 524, ((2-(((2S)-1-((2S)-4-(3-((4-(2-(2,6-dioxopiperidin-3-yl)-1,3-dioxoisoindolin-5-yl)but-3-yn-1-yl)amino)-3-oxopropanoyl)-2-((R)-3-phenylpiperidine-1-carbonyl)piperazin-1-yl)-3,3-dimethyl-1-oxobutan-2-yl)carbamoyl)benzo[b]thiophen-5-yl)difluoromethyl)phosphonic acid] | > 10 µM |
| CC(C)(C)c1ccc(C[C@H](NC(=O)c2cc3cc(C(F)(F)P(=O)(O)O)ccc3s2)C(=O)N2C[C@@H](OCCCCCCC#Cc3cccc4c3CN(C3CCC(=O)NC3=O)C4=O)C[C@H]2C(=O)N2CCO[C@H](c3ccccc3)C2)cc1 (stereo partly drawn) [Compound 589, ((2-(((2S)-3-(4-(tert-butyl)phenyl)-1-((2S,4S)-4-((8-(2-(2,6-dioxopiperidin-3-yl)-1-oxoisoindolin-4-yl)oct-7-yn-1-yl)oxy)-2-((R)-2-phenylmorpholine-4-carbonyl)pyrrolidin-1-yl)-1-oxopropan-2-yl)carbamoyl)benzo[b]thiophen-5-yl)difluoromethyl)phosphonic acid] | 1 to 10 µM |
| Cc1ncsc1-c1ccc([C@H](C)NC(=O)[C@@H]2C[C@@H](O)CN2C(=O)[C@@H](NC(=O)CCCCNC(=O)CO[C@H]2C[C@@H](C(=O)N3CCO[C@H](c4ccccc4)C3)N(C(=O)[C@@H](NC(=O)c3cc4cc(C(F)(F)P(=O)(O)O)ccc4s3)C(C)(C)C)C2)C(C)(C)C)cc1 [Compound 428, (difluoro(2-(((S)-1-((2S,4S)-4-(2-((5-(((S)-1-((2S,4R)-4-hydroxy-2-(((S)-1-(4-(4-methylthiazol-5-yl)phenyl)ethyl)carbamoyl)pyrrolidin-1-yl)-3,3-dimethyl-1-oxobutan-2-yl)amino)-5-oxopentyl)amino)-2-oxoethoxy)-2-((R)-2-phenylmorpholine-4-carbonyl)pyrrolidin-1-yl)-3,3-dimethyl-1-oxobutan-2-yl)carbamoyl)benzo[b]thiophen-5-yl)methyl)phosphonic acid] | > 10 µM |

Same assay, conditions: MOLM-16 cells, numeric bound, read-out: DC50 S6 MOLM-16

| SMILES | DC50 |
| --- | --- |
| CC(C)(C)[C@H](NC(=O)c1cc2cc(C(F)(F)P(=O)(O)O)ccc2s1)C(=O)N1C[C@@H](OCCCCCCC#Cc2cccc3c2CN(C2CCC(=O)NC2=O)C3=O)C[C@H]1C(=O)N1CCOC(c2cccnc2)C1 (stereo partly drawn) [Compound 609] | > 0.3 µM |
